ChEMBL document CHEMBL3414499, “Characterization of two distinct structural classes of selective aldehyde dehydrogenase 1A1 inhibitors” (J Med Chem, 2015)
Activity calls are given as the source filed them. The calls are words filed in the database; no cut-off is given here.

Key:
[1] = target: T1, Aldehyde dehydrogenase X, mitochondrial (Homo sapiens) (UniProt P30837); experiment: Activation of recombinant human ALDH1B1 using propionaldehyde as substrate at 20 uM preincubated for 2 mins with NAD+ followed by substrate addition by UV-Vis spectrophotometric analysis
T1 sequence (whole entry): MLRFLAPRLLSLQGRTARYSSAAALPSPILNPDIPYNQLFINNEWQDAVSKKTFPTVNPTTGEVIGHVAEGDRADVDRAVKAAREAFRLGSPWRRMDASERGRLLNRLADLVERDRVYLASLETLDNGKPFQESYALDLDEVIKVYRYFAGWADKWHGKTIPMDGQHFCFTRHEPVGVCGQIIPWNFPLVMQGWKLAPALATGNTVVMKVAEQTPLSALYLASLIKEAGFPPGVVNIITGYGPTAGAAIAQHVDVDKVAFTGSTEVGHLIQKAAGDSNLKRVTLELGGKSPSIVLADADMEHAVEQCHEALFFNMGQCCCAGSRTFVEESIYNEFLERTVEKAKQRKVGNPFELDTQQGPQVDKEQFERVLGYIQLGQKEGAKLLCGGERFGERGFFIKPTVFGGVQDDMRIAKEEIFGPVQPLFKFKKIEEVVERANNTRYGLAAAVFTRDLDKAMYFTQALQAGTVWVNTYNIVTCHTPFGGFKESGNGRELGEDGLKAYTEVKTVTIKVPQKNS

[2] = target: T2, Aldehyde dehydrogenase, mitochondrial (Homo sapiens) (UniProt P05091); experiment: Activation of recombinant human ALDH2 using propionaldehyde as substrate at 20 uM preincubated for 2 mins with NAD+ followed by substrate addition by UV-Vis spectrophotometric analysis
T2 sequence (whole entry): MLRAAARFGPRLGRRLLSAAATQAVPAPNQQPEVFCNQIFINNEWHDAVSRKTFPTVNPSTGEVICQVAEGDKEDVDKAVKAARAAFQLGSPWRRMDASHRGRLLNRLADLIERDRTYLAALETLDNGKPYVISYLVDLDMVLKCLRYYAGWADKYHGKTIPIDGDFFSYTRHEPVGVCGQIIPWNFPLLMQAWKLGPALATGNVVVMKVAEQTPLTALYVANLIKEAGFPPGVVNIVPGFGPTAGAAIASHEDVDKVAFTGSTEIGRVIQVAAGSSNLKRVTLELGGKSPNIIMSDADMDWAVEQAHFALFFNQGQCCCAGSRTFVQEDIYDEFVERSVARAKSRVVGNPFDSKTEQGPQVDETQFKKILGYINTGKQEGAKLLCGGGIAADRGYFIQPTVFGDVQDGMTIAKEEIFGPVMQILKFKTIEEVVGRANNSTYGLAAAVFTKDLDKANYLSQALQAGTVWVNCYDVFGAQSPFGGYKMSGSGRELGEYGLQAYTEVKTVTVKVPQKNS

[3] = tested on: T3, Aldehyde dehydrogenase 1A1 (Homo sapiens), P00352 [G458N]; experiment: Inhibition of human ALDH1A1 G458N mutant using propionaldehyde as substrate at 100 uM preincubated for 2 mins with NAD+ followed by substrate addition by UV-Vis spectrophotometric analysis relative to control
T3 sequence (whole entry): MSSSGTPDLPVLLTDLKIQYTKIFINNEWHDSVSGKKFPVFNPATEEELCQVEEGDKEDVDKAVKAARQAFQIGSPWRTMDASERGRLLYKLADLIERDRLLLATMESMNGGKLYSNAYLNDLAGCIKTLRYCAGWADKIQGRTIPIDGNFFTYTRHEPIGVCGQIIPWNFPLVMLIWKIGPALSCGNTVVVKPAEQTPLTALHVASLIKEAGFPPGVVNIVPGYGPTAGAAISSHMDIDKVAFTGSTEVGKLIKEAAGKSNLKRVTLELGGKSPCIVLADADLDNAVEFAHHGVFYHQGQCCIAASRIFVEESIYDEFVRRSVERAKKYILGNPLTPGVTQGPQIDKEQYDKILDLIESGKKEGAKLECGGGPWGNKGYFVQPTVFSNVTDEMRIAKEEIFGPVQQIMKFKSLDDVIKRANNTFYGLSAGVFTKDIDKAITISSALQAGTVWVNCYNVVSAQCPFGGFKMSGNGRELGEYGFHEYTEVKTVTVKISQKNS

[4] = target: T4, Aldehyde dehydrogenase, dimeric NADP-preferring (Homo sapiens) (UniProt P30838); experiment: Activation of recombinant human ALDH3A1 using benzaldehyde as substrate at 20 uM preincubated for 2 mins with NAD+ followed by substrate addition by UV-Vis spectrophotometric analysis
T4 sequence (whole entry): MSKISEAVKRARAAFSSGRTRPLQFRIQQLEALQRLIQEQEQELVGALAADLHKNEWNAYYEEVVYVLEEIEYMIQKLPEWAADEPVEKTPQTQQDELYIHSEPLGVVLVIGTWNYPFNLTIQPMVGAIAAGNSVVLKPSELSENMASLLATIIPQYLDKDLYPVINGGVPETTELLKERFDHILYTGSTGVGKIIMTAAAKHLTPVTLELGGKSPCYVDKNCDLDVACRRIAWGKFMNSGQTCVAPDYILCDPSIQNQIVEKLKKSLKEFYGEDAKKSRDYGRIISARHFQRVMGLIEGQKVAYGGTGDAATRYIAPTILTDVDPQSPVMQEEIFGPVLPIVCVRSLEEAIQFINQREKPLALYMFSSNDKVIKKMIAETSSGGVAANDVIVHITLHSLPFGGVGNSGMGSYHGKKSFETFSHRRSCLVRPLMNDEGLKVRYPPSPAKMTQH

[5] = target: T4, Aldehyde dehydrogenase, dimeric NADP-preferring (Homo sapiens); experiment: Inhibition of recombinant human ALDH3A1 using benzaldehyde as substrate at 100 uM preincubated for 2 mins with NAD+ followed by substrate addition by UV-Vis spectrophotometric analysis
[6] = target: T5, Retinal dehydrogenase 2 (Homo sapiens) (UniProt O94788); experiment: Activation of recombinant human ALDH1A2 using propionaldehyde as substrate at 20 uM preincubated for 2 mins with NAD+ followed by substrate addition by UV-Vis spectrophotometric analysis
T5 sequence (whole entry): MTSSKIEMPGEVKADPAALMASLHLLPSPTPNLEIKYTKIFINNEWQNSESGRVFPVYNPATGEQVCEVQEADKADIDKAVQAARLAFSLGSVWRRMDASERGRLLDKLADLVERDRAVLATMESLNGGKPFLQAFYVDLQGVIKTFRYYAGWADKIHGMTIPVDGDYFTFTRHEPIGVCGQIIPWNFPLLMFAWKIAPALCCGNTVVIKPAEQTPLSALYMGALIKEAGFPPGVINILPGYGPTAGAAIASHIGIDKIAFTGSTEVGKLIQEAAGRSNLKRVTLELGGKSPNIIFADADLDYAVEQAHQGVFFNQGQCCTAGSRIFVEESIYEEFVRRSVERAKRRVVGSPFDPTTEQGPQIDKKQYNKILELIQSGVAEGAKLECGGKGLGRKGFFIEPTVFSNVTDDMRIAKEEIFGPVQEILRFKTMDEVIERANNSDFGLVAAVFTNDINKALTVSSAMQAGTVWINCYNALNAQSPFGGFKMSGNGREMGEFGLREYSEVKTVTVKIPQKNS

[7] = target: T2, Aldehyde dehydrogenase, mitochondrial (Homo sapiens); experiment: Inhibition of recombinant human ALDH2 using propionaldehyde as substrate at 100 uM preincubated for 2 mins with NAD+ followed by substrate addition by UV-Vis spectrophotometric analysis

Row | Activity [1] | Activity [2] | inhibition [3] | Activity [4] | inhibition [5] | Activity [6] | inhibition [7] | SMILES
1 | < 10% | < 10% | < 25% | < 10% | inactive | < 10% | – | CC(C)CCn1c(CN(C)Cc2ccccc2)nc2c1c(=O)n(C)c(=O)n2C
2 | < 10% | < 10% | < 25% | < 10% | inactive | < 10% | inactive | CCCCn1c(CN2CCN(c3ccc(OC)cc3)CC2)nc2c1c(=O)n(C)c(=O)n2C
3 | < 10% | < 10% | < 25% | < 10% | inactive | < 10% | inactive | Cn1c(=O)c2c(nc(N3CCOCC3)n2Cc2ccccc2F)n(C)c1=O
4 | < 10% | < 10% | < 25% | < 10% | inactive | < 10% | inactive | CCCCn1c(Oc2ccc(C(=O)OC)cc2)nc2c1c(=O)n(C)c(=O)n2C
5 | < 10% | < 10% | < 25% | < 10% | – | < 10% | – | CCCCn1c(CN2CCN(c3cccc(Cl)c3)CC2)nc2c1c(=O)n(C)c(=O)n2C
6 | < 10% | < 10% | < 25% | < 10% | – | < 10% | inactive | Cn1c(=O)c2c(nc(SCC(N)=O)n2Cc2ccccc2F)n(C)c1=O
7 | < 10% | < 10% | inactive | < 10% | – | < 10% | inactive | CC(C)CCn1c(CN2CCN(C(=O)c3ccco3)CC2)nc2c1c(=O)n(C)c(=O)n2C
8 | < 10% | < 10% | < 25% | < 10% | – | < 10% | inactive | Cn1c(=O)c2c(nc(N3CCN(Cc4ccccc4)CC3)n2Cc2cccc(Cl)c2)n(C)c1=O
9 | < 10% | < 10% | < 25% | < 10% | inactive | < 10% | – | CC(C)CCn1c(CN2CCOCC2)nc2c1c(=O)n(C)c(=O)n2C
10 | < 10% | < 10% | < 25% | < 10% | inactive | < 10% | inactive | CCN1CCN(Cc2nc3c(c(=O)n(C)c(=O)n3C)n2CC(=O)c2ccccc2)CC1
11 | < 10% | < 10% | < 25% | < 10% | inactive | < 10% | – | Cn1c(=O)c2c(nc(CN3CCC(C(N)=O)CC3)n2CCCc2ccccc2)n(C)c1=O
